Assay: storage stability test of eye drop in resin container (content by HPLC)
Type: physicochemical
Source text: The content of the present prostaglandin derivative refers to the ratio (%) of the concentration of the present prostaglandin derivative existing in the aqueous liquid preparation after a predetermined period of time to the original concentration of the present prostaglandin derivative existing in the aqueous liquid preparation when the prostaglandin-containing product is produced throughout the claims and the specification. For example, in the case where the present prostaglandin derivative is dissolved in water, it refers to the ratio (%) of the concentration of the present prostaglandin derivative existing in the aqueous solution after a predetermined period of time to the concentration of the present prostaglandin derivative dissolved in water.
A 5-ml eye drop resin container was obtained by injection blow molding of a propylene/ethylene random copolymer (containing an ethylene component in an amount of 3%).
The resin container obtained in the section of “2. Production of Resin Container” was subjected to a sterilization treatment with ethylene oxide gas (sterilization with ethylene oxide at a concentration of 20% (v/v), at a temperature of 40° C. and a relative humidity of 50% for 3 hours), and then, in the container, Eye drop 1 obtained in the section of “1. Preparation of Eye Drop” was charged. […] The concentration of the present compound in the container was measured by high performance liquid chromatography before the initiation of storage and after 30-day storage. The content of the present compound was calculated taking the concentration of the present compound at the time of initiation of storage as a standard (100%). Incidentally, each value in Table 1 is expressed as an average of three cases.
Except that the sterilization treatment with ethylene oxide gas was altered into a sterilization treatment with gamma rays (32 kGy), the content of the present compound was calculated in the same manner as in Example 1.
Except that the sterilization treatment with ethylene oxide gas was altered into a sterilization treatment with electron rays (23 kGy), the content of the present compound was calculated in the same manner as in Example 1.
Except that a container with no sterilization treatment was used as the container, the content of the present compound was calculated in the same manner as in Example 1.
Except that Eye drop 1 was altered into Eye drop 2, the content of latanoprost was calculated in the same manner as in Example 1.
Except that Eye drop 1 was altered into Eye drop 2 and the sterilization treatment with ethylene oxide gas was altered into a sterilization treatment with gamma rays (32 kGy), the content of latanoprost was calculated in the same manner as in Example 1. […]

[1] = sterilized container compared with container with no sterilization treatment

Row | Compound | content in the eye drop (container sterilized with gamma rays, electron rays or ethylene oxide gas) | content in the eye drop after a predetermined period of time [1] | content in the eye drop after a predetermined period of time (ethylene oxide gas sterilized container in comparison with gamma-ray or electron-ray sterilized container)
1 | CC(C)OC(=O)CCC/C=C\C[C@@H]1[C@@H](CC[C@@H](O)CCc2ccccc2)[C@H](O)C[C@@H]1O [latanoprost, 13,14-dihydro-17-phenyl-18,19,20-trinor-prostaglandin F2α isopropyl ester] | did not decrease | comparable | –
2 | CC(C)OC(=O)CCC/C=C\C[C@@H]1[C@@H](/C=C/C(F)(F)COc2ccccc2)[C@H](O)C[C@@H]1O [present compound, 16-phenoxy-15-deoxy-15,15-difluoro-17,18,19,20-tetranor-prostaglandin F2α isopropyl ester] | – | comparable | higher
